Measured values from patent US9944600B2, “Piperidine derivatives for GPR119 agonist” (CHONG KUN DANG PHARMACEUTICAL CORP., priority 2012, dated 2018).

Molecular target: T1, human GPR119 receptor (Homo sapiens, UniProt Q8TDV5)
T1 construct: host or cells: GeneBLAzer T-Rex GPR 119 CHO-K1 DA cells (CHO-K1)
T1 sequence (Q8TDV5 1-335): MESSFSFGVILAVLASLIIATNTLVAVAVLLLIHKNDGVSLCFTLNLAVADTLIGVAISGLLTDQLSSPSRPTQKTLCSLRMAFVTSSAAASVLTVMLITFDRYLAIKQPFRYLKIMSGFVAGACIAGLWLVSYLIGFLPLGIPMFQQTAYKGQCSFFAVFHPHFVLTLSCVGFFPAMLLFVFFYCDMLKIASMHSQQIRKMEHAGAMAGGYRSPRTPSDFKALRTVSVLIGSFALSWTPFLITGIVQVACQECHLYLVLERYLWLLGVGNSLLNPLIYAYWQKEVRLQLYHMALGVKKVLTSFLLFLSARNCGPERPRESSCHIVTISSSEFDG
Assay: Activity test for human GPR119 receptor (GeneBLAzer T-Rex GPR 119 CHO-K1 DA cells, fluorescence reporter)
Format: cell-based
Details: human GPR119 CHO-K1 reporter cells, 5 hours treatment, ratio to vehicle control well, read-out: % Activation; for activity at 0.1 µM: test compound conc. 0.1 μM; for activity at 1 µM: test compound conc. 1 μM; for activity at 10 µM: test compound conc. 10 μM
Experimental: As a human GPR119 receptor expression cell for this test, the cell line “GeneBLAzer™ T-Rex GPR 119 CHO-K1 DA cells” that is commercially available from Invitrogen, was used. The cell was incubated in the DMEM media containing 1% dialyzed fetal bovine serum etc. The cell incubator was kept at constant temperature and constant humidity of 37° C., 5% CO2.
The human GPR119 receptor expressing cell was used to this test. Each of test compounds was added to be final concentrations of 0.1, 1, 10 μM in 96 well and tested in duplicate. A fixed amount of cell was added to each well of 96 well separately, and then treated with the test compound for 5 hours. After treatment of color development agent for 2 hours, the fluorescence value was determined with plate reader. To the luminous wavelength of control well, which was not treated with the agonist sample, but in which only a vehicle (i.e., cell) was contained, the ratio of the luminous wavelength of test well, which was treated with the agonist sample, was calculated, and then converted to obtain % value.
All the results were expressed as mean±SD, and each test groups and the control group were compared using student's t-test to adjudge the effects of each test groups.

Row | Structure (SMILES) | activity at 0.1 µM | activity at 1 µM | activity at 10 µM
1 | CS(=O)(=O)c1ccc(-c2ccc(OCC3CCN(CC4(C(F)(F)F)CC4)CC3)cc2)cc1 [Compound 500, 4-((4′-(methylsulfonyl)biphenyl-4-yloxy)methyl)-1-((1-(trifluoromethyl)cyclopropyl)methyl)piperidine] | 214% | 298% | 310%
2 | CC(C)(F)CN1CCC(COc2ccc(-c3ccc(C(=O)N4CC[C@@H](O)C4)cc3)cc2)CC1 [Compound 553, (R)-(4′-((1-(2-fluoro-2-methylpropyl)piperidin-4-yl)methoxy)biphenyl-4-yl)(3-hydroxypyrrolidine-1-yl)methanone] | 149% | 204% | 253%
3 | CC(C)(F)CN1CCC(COc2ccc(-c3ccc(C(=O)N4CC[C@H](O)C4)cc3)cc2)CC1 [Compound 554, (S)-(4′-((1-(2-fluoro-2-methylpropyl)piperidin-4-yl)methoxy)biphenyl-4-yl)(3-hydroxypyrrolidine-1-yl)methanone] | 141% | 219% | 279%
4 | CC(C)(F)CN1CCC(COc2ccc(-c3ccc(C(=O)N4CCC[C@@H]4CO)cc3)cc2)CC1 [Compound 555, (R)-(4′-((1-(2-fluoro-2-methylpropyl)piperidin-4-yl)methoxy)biphenyl-4-yl)(2-(hydroxymethyl)pyrrolidine-1-yl)methanone] | 190% | 269% | 272%
5 | O=C(c1ccc(-c2ccc(OCC3CCN(CC4(C(F)(F)F)CC4)CC3)nc2)cc1)N1CCC(CO)CC1 [Compound 587, (4-(hydroxymethyl)piperidin-1-yl)(4-(6-((1-((1-(trifluoromethyl)cyclopropyl)methyl)piperidin-4-yl)methoxy)pyridine-3-yl)phenyl)methanone] | 227% | 288% | 297%
6 | CC(=O)N1CCN(C(=O)c2ccc(-c3ccc(OCC4CCN(CC(C)(C)F)CC4)cc3)cc2)CC1 [Compound 628, 1-(4-(4′-((1-(2-fluoro-2-methylpropyl)piperidin-4-yl)methoxy)biphenylcarbonyl)piperazin-1-yl)ethanone] | 138% | 210% | 257%
7 | NC(=O)[C@@H]1CCCN1C(=O)c1ccc(-c2ccc(OCC3CCN(CC4(C(F)(F)F)CCC4)CC3)cc2)cc1 [Compound 635, (S)-1-(4′-((1-((1-(trifluoromethyl)cyclobutyl)methyl)piperidin-4-yl)methoxy)biphenylcarbonyl)pyrrolidine-2-carboxamide] | 265% | 305% | 239%
8 | CC(C)(F)CN1CCC(COc2ccc(-c3ccc(C(=O)N4CCC[C@@H]4CO)c(F)c3)cc2)CC1 [Compound 641, (R)-(3-fluoro-4′-((1-(2-fluoro-2-methylpropyl)piperidin-4-yl)methoxy)biphenyl-4-yl)(2-(hydroxymethyl)pyrrolidine-1-yl)methanone] | 167% | 220% | 246%
9 | CC(C)(F)CN1CCC(COc2ccc(-c3ccc(C(=O)N4CCC[C@H]4C(N)=O)c(F)c3)cc2)CC1 [Compound 644, (S)-1-(3-fluoro-4′-((1-(2-fluoro-2-methylpropyl)piperidin-4-yl)methoxy)biphenylcarbonyl)pyrrolidine-2-carboxamide] | 213% | 295% | 294%
10 | NC(=O)[C@@H]1CCCN1C(=O)c1ccc(-c2ccc(OCC3CCN(CC4(C(F)(F)F)CCC4)CC3)nc2)cc1F [Compound 722, (S)-1-(2-fluoro-4-(6-((1-((1-(trifluoromethyl)cyclobutyl)methyl)piperidin-4-yl)methoxy)pyridine-3-yl)benzoyl)pyrrolidine-2-carboxamide] | 198% | 269% | 261%
11 | CCC(F)(CC)CN1CCC(COc2ccc(-c3ccc(C(=O)N4CCC[C@H]4C(N)=O)c(F)c3)cc2C#N)CC1 [Compound 1000, (S)-1-(3′-cyano-4′-((1-(2-ethyl-2-fluorobutyl)piperidin-4-yl)methoxy)-3-fluorobiphenylcarbonyl)pyrrolidine-2-carboxamide] | 311% | 367% | 374%

Results, then the compound that gave them:

Row | activity at 0.1 µM | activity at 1 µM | activity at 10 µM | Structure (SMILES)
12 | 192% | 244% | 291% | CC(C)(F)CN1CCC(COc2ccc(-c3ccc(C(=O)N4CCOCC4)cc3)cc2)CC1 [Compound 517, (4′-((1-(2-fluoro-2-methylpropyl)piperidin-4-yl)methoxy)biphenyl-4-yl)(morpholino)methanone]
13 | 256% | 347% | 376% | CS(=O)(=O)c1ccc(-c2ccc(OCC3CCN(CC4(C(F)(F)F)CCC4)CC3)cc2)cc1 [Compound 542, 4-((4′-(methylsulfonyl)biphenyl-4-yloxy)methyl)-1-((1-(trifluoromethyl)cyclobutyl)methyl)piperidine]
14 | 135% | 232% | 288% | CN(CCO)C(=O)c1ccc(-c2ccc(OCC3CCN(CC(C)(C)F)CC3)cc2)cc1 [Compound 551, 4′-((1-(2-fluoro-2-methylpropyl)piperidin-4-yl)methoxy)-N-(2-hydroxyethyl)-N-methylbiphenyl-4-carboxamide]
15 | 199% | 229% | 269% | CC(C)(F)CN1CCC(COc2ccc(-c3ccc(C(=O)N4CCC(F)(F)C4)cc3)cc2)CC1 [Compound 629, (3,3-difluoropyrrolidine-1-yl)(4′-((1-(2-fluoro-2-methylpropyl)piperidin-4-yl)methoxy)biphenyl-4-yl)methanone]
16 | 160% | 228% | 262% | O=C(c1ccc(-c2ccc(OCC3CCN(CC4(C(F)(F)F)CCC4)CC3)nc2)cc1F)N1CC[C@H](O)C1 [Compound 720, (8)-(2-fluoro-4-(6-((1-((1-(trifluoromethyl)cyclobutyl)methyl)piperidin-4-yl)methoxy)pyridine-3-yl)phenyl)(3-hydroxypyrrolidine-1-yl)methanone]
17 | 256% | 296% | 252% | O=C(c1ccc(-c2ccc(OCC3CCN(CC4(C(F)(F)F)CCC4)CC3)cc2)cc1)N1CCC[C@@H](O)C1 [Compound 794, (R)-(3-hydroxypiperidin-1-yl)(4′-((1-((1-(trifluoromethyl)cyclobutyl)methyl)piperidin-4-yl)methoxy)biphenyl-4-yl)methanone]
18 | 257% | 313% | 303% | CC(C)(CN1CCC(COc2ccc(-c3ccc(C(=O)N4CCC[C@@H](O)C4)cc3)cn2)CC1)C(F)(F)F [Compound 829, (R)-(3-hydroxypiperidin-1-yl)(4-(6-((1-(3,3,3-trifluoro-2,2-dimethylpropyl)piperidin-4-yl)methoxy)pyridin-3-yl)phenyl)methanone]
19 | 251% | 296% | 306% | NC(=O)[C@@H]1CCCN1C(=O)c1ccc(-c2ccc(OCC3CCN(CC4(C(F)(F)F)CCC4)CC3)c(F)c2)cc1 [Compound 837, (S)-1-(3′-fluoro-4′-((1-((1-(trifluoromethyl)cyclobutyl)methyl)piperidin-4-yl)methoxy)biphenylcarbonyl)pyrrolidine-2-carboxamide]
20 | 164% | 241% | 246% | NC(=O)[C@H]1CCCCN1C(=O)c1ccc(-c2ccc(OCC3CCN(CC4(C(F)(F)F)CCC4)CC3)c(F)c2)cc1 [Compound 886, (R)-1-(3′-fluoro-4′-((1-((1-(trifluoromethyl)cyclobutyl)methyl)piperidin-4-yl)methoxy)biphenylcarbonyl)piperidin-2-carboxamide]
21 | 235% | 314% | 340% | NC(=O)[C@@H]1CCCN1C(=O)c1ccc(-c2cnc(OCC3CCN(CC4(C(F)(F)F)CCC4)CC3)cn2)cc1 [Compound 1009, (S)-1-(4-(5-((1-((1-(trifluoromethyl)cyclobutyl)metb.yl)piperidin-4-yl)methoxy)pyrazine-2-yl)benzoyl)pyrrolidine-2-carboxamide]
